pIC50: −log10 of the molar value.

The target of one data set is Cytochrome P450 2C9 (Homo sapiens, UniProt P11712). As to the kind of experiment: Inhibition of CYP2C9 (unknown origin). The format is ADME.
Data set [1] is described as follows: Oral bioavailability in ICR mouse at 10 mg/kg measured upto 24 hrs by LC-MS/MS analysis. It is filed as ADME, organism-based. The note with it: in vivo.
The test system of data set [2] is CT26. As to the kind of experiment: Antitumor activity in immunocompetent mouse CT26 cell bearing mouse model assessed as tumor growth inhibition at 6.25 mg/kg, IG treated twice a day measured after 14 days relative to control. The note with it: CT26, po, 336 h, time 14 day, read-out: TGI. The format is functional.
Data set [3] has as its target Protein mono-ADP-ribosyltransferase PARP14 (Homo sapiens, UniProt Q460N5). As to the kind of experiment: Inhibition of PARP14 (unknown origin) measured after 1 hr incubation by microplate reader assay.
A short description of data set [4]: Half life in ICR mouse at 10 mg/kg, IG measured upto 24 hrs by LC-MS/MS analysis. It is filed as ADME, organism-based. The note with it: in vivo, po.
The target of data set [5] is T1, Protein mono-ADP-ribosyltransferase PARP10 (Homo sapiens, UniProt Q53GL7).
T1 sequence (Q53GL7 whole entry): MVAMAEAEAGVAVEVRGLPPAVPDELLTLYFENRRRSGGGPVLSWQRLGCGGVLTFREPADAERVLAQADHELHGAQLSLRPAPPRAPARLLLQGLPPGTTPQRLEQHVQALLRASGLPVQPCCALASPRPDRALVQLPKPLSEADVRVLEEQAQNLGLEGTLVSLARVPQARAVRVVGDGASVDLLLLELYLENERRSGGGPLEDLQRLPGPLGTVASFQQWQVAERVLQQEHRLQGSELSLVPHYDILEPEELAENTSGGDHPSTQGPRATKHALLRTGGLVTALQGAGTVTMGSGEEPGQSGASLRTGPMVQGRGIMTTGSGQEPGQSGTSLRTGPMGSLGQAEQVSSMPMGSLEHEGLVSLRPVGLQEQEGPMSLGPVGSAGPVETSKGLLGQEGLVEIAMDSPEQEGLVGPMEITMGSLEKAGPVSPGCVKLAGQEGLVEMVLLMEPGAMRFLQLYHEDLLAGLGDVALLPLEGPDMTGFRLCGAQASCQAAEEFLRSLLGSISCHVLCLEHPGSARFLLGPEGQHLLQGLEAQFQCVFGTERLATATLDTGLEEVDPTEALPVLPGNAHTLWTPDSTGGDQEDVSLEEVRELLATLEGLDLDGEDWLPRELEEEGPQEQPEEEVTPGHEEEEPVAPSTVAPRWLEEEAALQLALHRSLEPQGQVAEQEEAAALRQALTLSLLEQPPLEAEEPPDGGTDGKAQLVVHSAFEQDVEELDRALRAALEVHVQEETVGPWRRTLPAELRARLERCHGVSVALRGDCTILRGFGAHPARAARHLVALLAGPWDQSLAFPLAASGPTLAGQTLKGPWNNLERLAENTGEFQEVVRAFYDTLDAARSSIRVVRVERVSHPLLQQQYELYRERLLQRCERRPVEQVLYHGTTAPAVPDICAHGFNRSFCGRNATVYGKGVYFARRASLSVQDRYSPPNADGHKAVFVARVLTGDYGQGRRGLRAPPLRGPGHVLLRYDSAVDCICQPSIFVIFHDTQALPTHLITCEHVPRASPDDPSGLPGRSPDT
Nature of the data set: Inhibition of PARP10 (unknown origin) measured after 1 hr incubation by microplate reader assay.

In data set [6] the test system is CT26. Nature of the data set: Antitumor activity in immunocompetent mouse CT26 cell bearing Balb/c mouse model assessed as induction of IFN-beta mRNA expression in tumor tissue treated IG twice a day measured after 14 days by quantitative real-time PCR analysis. It is filed as functional. The settings on record: dose lower 6.25 mg/kg, dose upper […], time 14.0 day. (In general: Real-time PCR tracks product formation cycle by cycle.)

For data set [7], the target named is T2, Protein mono-ADP-ribosyltransferase TIPARP (Mus musculus) (UniProt Q8C1B2).
T2 sequence (whole entry): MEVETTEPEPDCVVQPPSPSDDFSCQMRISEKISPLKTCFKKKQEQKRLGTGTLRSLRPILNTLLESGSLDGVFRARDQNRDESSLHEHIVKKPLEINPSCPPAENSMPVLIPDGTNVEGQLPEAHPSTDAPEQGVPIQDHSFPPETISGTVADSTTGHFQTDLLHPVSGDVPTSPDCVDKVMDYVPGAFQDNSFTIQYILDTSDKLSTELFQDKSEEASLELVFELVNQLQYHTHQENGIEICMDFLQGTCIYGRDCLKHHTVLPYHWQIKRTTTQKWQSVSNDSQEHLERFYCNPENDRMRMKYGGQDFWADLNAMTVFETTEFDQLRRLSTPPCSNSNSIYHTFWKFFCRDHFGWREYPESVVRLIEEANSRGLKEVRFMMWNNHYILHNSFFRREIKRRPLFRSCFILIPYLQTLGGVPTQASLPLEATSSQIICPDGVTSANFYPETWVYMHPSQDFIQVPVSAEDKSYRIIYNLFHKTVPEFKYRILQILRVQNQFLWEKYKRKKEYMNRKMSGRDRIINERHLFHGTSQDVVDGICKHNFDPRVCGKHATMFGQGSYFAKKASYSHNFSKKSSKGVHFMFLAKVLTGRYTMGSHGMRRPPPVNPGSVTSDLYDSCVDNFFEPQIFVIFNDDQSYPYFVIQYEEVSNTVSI
Nature of the data set: Inhibition of PARP7 in mouse CT26 cells assessed as increase in TBK1 phosphorylation incubated for 3 days by Western blot analysis. It is filed as cell-based. The settings on record: dose 0.14-4 µM, time 3.0 day.

Data set [8] in a line: Cmax in ICR mouse at 1 mg/kg, iv measured upto 24 hrs by LC-MS/MS analysis. The format is ADME, organism-based. The note with it: in vivo.
Data set [9] is described as follows: MRT (0 to infinity) in ICR mouse at 10 mg/kg, IG measured upto 24 hrs by LC-MS/MS analysis. The note with it: in vivo, po. It is filed as ADME, organism-based.

Protein mono-ADP-ribosyltransferase PARP14, sequence (Q460N5 whole entry): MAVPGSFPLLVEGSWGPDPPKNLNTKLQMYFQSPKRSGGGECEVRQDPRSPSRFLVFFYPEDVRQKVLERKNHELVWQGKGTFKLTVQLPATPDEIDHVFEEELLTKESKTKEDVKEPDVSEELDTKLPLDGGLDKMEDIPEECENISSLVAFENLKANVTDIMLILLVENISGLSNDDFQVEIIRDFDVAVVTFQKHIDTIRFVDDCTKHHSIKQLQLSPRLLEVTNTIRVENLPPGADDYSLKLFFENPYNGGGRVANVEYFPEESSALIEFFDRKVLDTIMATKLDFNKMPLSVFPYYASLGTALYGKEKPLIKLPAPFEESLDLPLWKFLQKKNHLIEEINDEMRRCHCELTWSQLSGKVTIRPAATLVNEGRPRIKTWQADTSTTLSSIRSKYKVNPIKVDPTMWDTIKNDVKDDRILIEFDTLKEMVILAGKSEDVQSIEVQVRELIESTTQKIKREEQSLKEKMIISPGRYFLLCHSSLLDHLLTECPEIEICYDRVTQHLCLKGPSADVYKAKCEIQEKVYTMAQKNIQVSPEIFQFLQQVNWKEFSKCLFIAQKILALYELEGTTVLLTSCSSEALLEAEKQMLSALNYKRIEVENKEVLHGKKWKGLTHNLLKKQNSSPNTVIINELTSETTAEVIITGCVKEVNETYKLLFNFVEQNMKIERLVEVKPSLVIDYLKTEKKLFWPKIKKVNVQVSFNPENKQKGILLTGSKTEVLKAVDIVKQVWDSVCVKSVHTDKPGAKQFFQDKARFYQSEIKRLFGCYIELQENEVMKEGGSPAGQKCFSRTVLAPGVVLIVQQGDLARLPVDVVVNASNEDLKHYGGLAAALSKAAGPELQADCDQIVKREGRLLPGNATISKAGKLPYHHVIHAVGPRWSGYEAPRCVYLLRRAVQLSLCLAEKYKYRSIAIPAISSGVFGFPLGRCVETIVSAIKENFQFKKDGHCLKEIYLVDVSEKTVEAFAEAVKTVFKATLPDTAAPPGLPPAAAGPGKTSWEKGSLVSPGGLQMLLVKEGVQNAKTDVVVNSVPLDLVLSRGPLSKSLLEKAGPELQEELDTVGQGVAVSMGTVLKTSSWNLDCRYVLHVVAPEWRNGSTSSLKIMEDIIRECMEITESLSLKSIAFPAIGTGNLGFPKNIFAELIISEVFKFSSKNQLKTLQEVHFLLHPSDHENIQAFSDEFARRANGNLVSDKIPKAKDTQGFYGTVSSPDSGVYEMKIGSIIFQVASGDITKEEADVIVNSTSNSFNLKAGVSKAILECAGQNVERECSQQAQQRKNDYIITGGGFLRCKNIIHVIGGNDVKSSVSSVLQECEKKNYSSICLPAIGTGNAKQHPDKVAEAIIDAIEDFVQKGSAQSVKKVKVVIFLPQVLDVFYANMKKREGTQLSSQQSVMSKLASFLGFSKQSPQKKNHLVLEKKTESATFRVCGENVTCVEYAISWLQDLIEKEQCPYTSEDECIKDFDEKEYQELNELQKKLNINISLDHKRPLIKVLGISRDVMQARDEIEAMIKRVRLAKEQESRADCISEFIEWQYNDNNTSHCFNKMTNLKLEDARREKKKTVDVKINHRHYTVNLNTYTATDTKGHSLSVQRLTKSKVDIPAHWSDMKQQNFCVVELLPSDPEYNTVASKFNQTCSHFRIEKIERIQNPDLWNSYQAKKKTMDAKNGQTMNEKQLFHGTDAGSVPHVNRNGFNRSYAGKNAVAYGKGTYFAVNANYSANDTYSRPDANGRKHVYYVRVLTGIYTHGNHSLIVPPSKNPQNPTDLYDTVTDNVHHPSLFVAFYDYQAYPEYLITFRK
Cytochrome P450 2C9, sequence (P11712 whole entry): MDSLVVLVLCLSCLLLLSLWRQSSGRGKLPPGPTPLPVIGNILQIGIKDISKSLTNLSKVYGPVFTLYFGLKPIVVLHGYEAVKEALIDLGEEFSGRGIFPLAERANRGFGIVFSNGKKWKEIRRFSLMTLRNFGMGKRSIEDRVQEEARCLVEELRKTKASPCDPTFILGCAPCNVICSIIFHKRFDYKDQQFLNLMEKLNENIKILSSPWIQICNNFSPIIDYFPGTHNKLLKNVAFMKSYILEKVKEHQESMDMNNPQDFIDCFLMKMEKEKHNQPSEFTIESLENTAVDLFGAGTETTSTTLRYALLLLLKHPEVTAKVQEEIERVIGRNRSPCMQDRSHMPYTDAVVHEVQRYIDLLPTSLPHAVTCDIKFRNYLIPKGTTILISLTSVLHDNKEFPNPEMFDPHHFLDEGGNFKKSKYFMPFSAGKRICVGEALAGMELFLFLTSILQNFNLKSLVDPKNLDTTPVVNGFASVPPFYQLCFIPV

Take `C[C@@H](C(=O)N1CCN(c2ncc(C(F)(F)F)cn2)CC1)n1cc2cccc(C(N)=O)c2n1`: the pIC50 was less than 4.52 against Cytochrome P450 2C9, less than 5.89 in [3] and 6.42 in data set [5]. The bioavailability in data set [1] came to 94.6%. For the same compound, the inhibition in vivo at 6.25 mg/kg in the data set on CT26 [2] was 42%. Also, the half-life in [4] is 1.76 h. In addition, in the data set with CT26 [6], the Activity result is “Dose-Dependent Effect”. Also, in [7], the inhibition entry was “Dose-Dependent Effect”. The compound also yielded a Cmax in data set [8] of 1360 ng/mL. In [9], this compound yielded a mean residence time MRT inf of 2.52 h.

The term pIC50 denotes −log10 of the IC50, conventionally taken in molar units. Higher therefore signals a low IC50. Usually bioavailability stands for the share of a dose that reaches the circulation, judged against a reference dose that is usually intravenous. Read a high bioavailability as good availability. The term half-life denotes how long it takes for the measured level to halve. A low value points to rapid decline. The term Cmax denotes the maximum level reached in the sampled fluid or tissue. As usually defined, the MRT inf is the average time that molecules of a dose stay in the body.

(Values after ChEMBL document CHEMBL5537136 (J Med Chem, 2024).)
